Assay results taken from patent publication US9562053B2, “Benzo-fused heterocyclic derivatives useful as agonists of GPR120” (Janssen Pharmaceutica NV, priority 2013, dated 2017).
pEC50: −log10 of the molar value.

Tests used:
Type in all cases: cell-based
Human GPR120 short form [1] = biological target: T1, Human GPR120 short form (Homo sapiens, UniProt Q5NUL3); test: Human GPR120 in Calcium Flux Assay, Procedure Calcium A (2500 cells/well)
T1 construct: expressed in transfected cells
T1 sequence (Q5NUL3 1-361): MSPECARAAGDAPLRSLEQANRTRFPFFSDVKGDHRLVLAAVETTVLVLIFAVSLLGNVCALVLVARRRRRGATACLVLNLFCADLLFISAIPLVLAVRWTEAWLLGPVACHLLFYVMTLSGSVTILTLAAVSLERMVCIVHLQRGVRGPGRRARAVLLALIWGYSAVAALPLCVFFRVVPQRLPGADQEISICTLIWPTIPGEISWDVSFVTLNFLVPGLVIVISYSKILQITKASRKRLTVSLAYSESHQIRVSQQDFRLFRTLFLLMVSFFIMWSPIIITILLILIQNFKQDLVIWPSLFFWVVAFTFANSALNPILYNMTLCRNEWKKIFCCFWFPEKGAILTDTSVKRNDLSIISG
Text: (§1) This in vitro assay serves to assess test compound agonist activity against the short splice variant (SVS with Accession number NM_001195755.1 confirmed by sequencing data) of the GPR120 receptor. The Human Short splice variant #2 (NM_001195755.1) is missing an in-frame coding exon compared to variant 1 (the Human Long splice variant NM_181745.3), resulting in a shorter isoform (GPR120-S) lacking a 16 aa protein segment compared to isoform GPR120-L. The assay platform utilizes HEK-293 cells stably transfected to express the Human GPR120 short form. These cells are first loaded with the Ca^+2 sensitive dye, Fluo-4 NW. Upon stimulation, intracellular released Ca^+2 can bind to the dye and alter its fluorescence intensity. This increase in fluorescence signal, and thus the flux in intracellular [Ca^+2], is detected and quantitated by fluorescence imaging using a FLIPR reader. The effect of the agonist is measured as a function of concentration and used to calculate an EC50 based upon a response curve.
In this procedure 2500 cells/well were employed.
(§2) A Human GPR120 clone (Genbank accession number NM_001195755.1) was placed into the pcDNA3.1 mammalian expression vector carrying the neomycin resistance gene. A stable mammalian cell was generated by placing the above clone into a HEK293 background. Clonal cells responding to long chain fatty acids had expression levels of GPR120 confirmed by RT-qPCR. Human HEK-GPR120 cells were cultured in Dulbecco's Modified Eagle's Medium (DMEM)/F12 medium supplemented with 10% fetal bovine serum (FBS), 1% L-Glutamine and 1% penicillin/streptomycin and 0.5 mg/ml G-418. Cells were split 2 times a week to keep the cells in the log-phase growth.
(§3) In preparation for the assay, HEK cells stably transfected with Human GPR120 (2.5K cells per well in 25 uL growth medium) were seeded into 384-well plates and then incubated overnight (37° C., 5% CO2). The next day, the media was changed to 20 μl assay buffer and the cell starved for 1 h at 37° C. The dye loading solution (2× dye) was prepared using 10 ml assay buffer, 100 μl of 250 mM probenecid, 1 bottle of Component A, and 20 μl of dye in DMSO. Twenty μl of the 2× dye loading buffer was then added to each well. The plates were incubated at 37° C. for 30 min, then at room temperature for an additional 15 minutes, before performing the assay on FLIPR.
(§4) Test compounds were prepared in assay buffer (2 μl of test compound+198 μl assay buffer, final DMSO in assay plate is 0.2%) at the desired concentration, more particularly at 100 μM, 50 μM, 25 μM, 12.5 μM, 6.25 μM, 3.125 μM, 1.562 μM, 0.781 μM, 0.391 μM, 0.195 μM, 0.098 μM, 0.049 μM, 0.024 μM and 0.012 μM.
(§5) The assay was performed on a FLIPR plate reader using the following parameters. Baseline was read for 10 seconds at 1 sec intervals. The program was set to transfer 10 μL of ligand from compound plate to cell plate after baseline reading. Aspiration was executed at: 10 μl/sec speed, 4.6 μl height; Dispensing was executed at: 30 μl/sec speed, 45 μl height. After compound addition, each well was read for 300 sec, with measurements collected at 1 sec intervals.
(§6) The kinetic data from the FLIPR was based upon a 5 minute window for data collection. The fluorescence of each sample well was used for individual calculations of a normalized RFU value, which was defined as maximum response minus the minimum response. The normalized fluorescence reading (RFU) was calculated as follows: RFU=Fmax−Fmin
(§7) The data were fitted to a sigmoidal dose-response curve with a variable Hill slope (<2) using nonlinear regression with GraphPad Prism 5.0 to calculate the EC50 values. The Fitting Equation was: Y=Bottom+(Top−Bottom)/(1+10^((LogEC50−X)*HillSlope)), where X is the log of the concentration and Y is the response.

[2] = biological target: T2, short form of the GPR120 receptor (Homo sapiens, UniProt Q5NUL3); test: Human GPR120 DiscoveRx PathHunter Beta-Arrestin Assay, Procedure β-arrestin B (5000 cells/well)
T2 construct: host or cells: PathHunter CHO-K1 GPR120S β-Arrestin Cell Line
T2 sequence (Q5NUL3 1-361): T1 sequence (Q5NUL3 1-361)
Text: The binding of an agonist (medium/long chain fatty acids or small molecule agonists) to the G-protein-coupled receptor GPR120 activates phospholipase C, leading to release of intracellular Ca^+2 through the generation of inositol 1,4,5-trisphosphate (InsP3 or IP3). GPR120 activation can also trigger intracellular signaling via recruitment of β-Arrestin. In the present method, agonist-induced activation of the human GPR120 receptor is monitored through the use of PathHunter CHO-K1 GPR120 β-Arrestin Cell Line engineered by DiscoveRx, as detailed below. The cell lines are designed to co-express both the ProLink/Enzyme Donor (PK)-tagged GPCR and the Enzyme Activator (EA)-tagged β-Arrestin fusion proteins. Upon GPR120 receptor stimulation/activation, the EA-tagged β-Arrestin portion is translocated to the tagged receptor, where the two enzyme fragments are brought within close proximity. Under these conditions, these fragments can interact and form an active Beta-gal enzyme complex through Enzyme Fragment Complementation (EFC). This active Beta-gal complex can enzymatically hydrolyse the substrate to produce a detectable light signal; therefore, activation as a function of agonist concentration can be expressed as an EC50 value to determine relative compound activities. This in vitro assay therefore serves to assess compound agonist activity of the GPR120.
In Procedure β-arrestin B the cells used were PathHunter CHO-K1 GPR120S β-Arrestin Cell Line, expressing the short form of the GPR120 receptor (Accession #NM_181745), with 5000 cells/well.
The selected CHO-K1 GPR120 β-Arrestin cells were cultured in Ham's F12 media supplemented with 10% fetal bovine serum (FBS), 1% Glutamine, 1×p/s, 800 μg/ml G418 and 300 μg/ml Hygromycin B (for selection). Cell stocks were maintained and grown in a sub-confluent state using standard cell culture procedures. The day before the experiment, the cells were harvested with non-enzymatic cell dissociation buffer and re-suspended in complete growth media at the desired concentration. A Corning 384-plate was then seeded with the proper number of cells in a volume of 25 μL, per well. The seeded plates were incubated overnight at 37° C.
On the day of the experiment, the Assay Buffer containing (a) HBSS with Ca^++ and Mg^++, (b) 20 mM HEPES, and (c) 0.1% BSA stabilizer (pH 7.4) was prepared. The growth medium was gently removed from the cell plates and 20 μL of Assay Buffer added to each well. The plate was then incubated at 37° C. for 60 mins. Test compounds were serially diluted in Assay Buffer to desired concentrations (more particularly, to one or more of the following μM concentrations: 25 μM, 12.5 μM, 6.25 μM, 3.125 μM, 1.562 μM, 0.781 μM, 0.391 μM, 0.195 μM, 0.098 μM, 0.049 μM, 0.024 μM, 0.012 μM). Five μl of compound dilution was then added to each well and the plate incubated at 37° C. for 90 mins. The detection reagents were prepared according to the manufacture's instruction. Twelve μL of the detection reagents were added to each well and the plate incubated at room temperature for 60 mins.
The plates were read on an EnVision instrument, using Protocol name: Luminescence, Plate type: 384 Costar, Measurement height: 3 mm, Measurement time: 1 s, Aperture: 384 Plate aperture. The % activity relative to the positive control was calculated using the following equation:
as §7, with “% Activity values” for “data”, “were plotted versus the concentration of test compound and” for “were”, “a” for “a variable”, “slope=1 (fixed value)” for “slope (<2)”

Human GPR120 short form [3] = biological target: T1, Human GPR120 short form; test: Human GPR120 in Calcium Flux Assay, Procedure Calcium B (4200 cells/well)
Text: as §1
In this procedure 4200 cells/well were employed.
as §2, §3, §4, §5, §6, §7

| SMILES | pEC50 (Human GPR120 short form [1]) | pEC50 [2] | pEC50 (Human GPR120 short form [3]) |
| --- | --- | --- | --- |
| Cc1c(CCC(=O)O)ccc(OCc2cc(Cl)cc3sc(C(C)(C)C)nc23)c1C [Compound 104, 3-{4-[(2-tert-Butyl-6-chloro-1,3-benzothiazol-4-yl)methoxy]-2,3-dimethylphenyl}propanoic acid] | 5.73 | 5.81 | 6.30 |
| CCc1nc2c(COc3ccc(CCC(=O)O)c(C)c3C)cc(F)cc2s1 [Compound 105, 3-{4-[(2-Ethyl-6-fluoro-1,3-benzothiazol-4-yl)methoxy]-2,3-dimethylphenyl}propanoic acid] | 6.69 | 6.40 | 7.04 |
